Holding throughout (assay): NCI tumour cell line growth inhibition, 48 h
The subject of assay [1] is NCI-H460.
The subject of assay [2] is HT-29.
Assay [3] has as its system SK-MEL-5.
Assay [4] deals with MCF7.
Assay [5] relates to NCI/ADR-RES.
For assay [6], the system named is SF-539.
Assay [7] concerns DU-145.
Assay [8] deals with OVCAR-8.
The test system of assay [9] is RXF 393.
For assay [10], the system named is UACC-62.
Assay [11] concerns TK-10.
The test system of assay [12] is SF-268.
For assay [13], the system named is KM12.
Assay [14] deals with PC-3.
Assay [15] deals with K562.
Assay [16] has as its system Hs-578T.
Assay [17] relates to NCI-H522.
The subject of assay [18] is HOP-92.
For assay [19], the system named is NCI-H226.

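Test compounds were applied to cells in 96-well plates for 48 hours at 5 doses. GI50 = concentration required for 50% inhibition of growth.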 Activity calls are given as the source filed them. Cut-off read from the data, not from the text of the source: active = GI50 up to about 1.1 µM and inactive = higher.

With `Cc1nccn1S(=O)(=O)c1ccc(Br)cc1Br`, the GI50 in assay [1] was 38.4 µM (inactive); in assay [2], 29.1 µM (inactive); in [3], 19.9 µM (inactive); in [4], 37.5 µM (inactive); in assay [5] it was 28.5 µM (inactive); in assay [6], 22.6 µM (inactive). The GI50 is 42.9 µM (inactive) in assay [7]; 44.4 µM (inactive) in [8]; 23 µM (inactive) in [9]; 33.6 µM (inactive) in assay [10]; 38.6 µM (inactive) in assay [11]; 37.2 µM (inactive) in assay [12]. Moreover, the GI50 in assay [13] is 27.7 µM (inactive); in assay [14], 33 µM (inactive); in assay [15], 29.1 µM (inactive); in assay [16], 41.1 µM (inactive); in [17], 25.7 µM (inactive); in assay [18], 26.7 µM (inactive).

`C=C(C)COc1cc(/N=C(/S)OC(C)C)ccc1Cl`: the GI50 in assay [1] is 15.4 µM (inactive); in [2], 14.4 µM (inactive); in [19], 17.9 µM (inactive); in [3] it was 19.5 µM (inactive); in assay [4] it was 15.4 µM (inactive); in assay [5] it was 15.2 µM (inactive). The GI50 is 16.1 µM (inactive) in assay [6]; 16.7 µM (inactive) in [7]; 16.2 µM (inactive) in [8]; 17.3 µM (inactive) in [10]; 15.2 µM (inactive) in assay [11]; 19.5 µM (inactive) in assay [12]. Further, the GI50 in assay [13] was 20.2 µM (inactive); in assay [14], 14.7 µM (inactive); in [15] it was 11.7 µM (inactive); in assay [16], 20.4 µM (inactive); in [17], 14.9 µM (inactive); in assay [18] it was 13.6 µM (inactive).

Regarding `CCOC(=O)C(Cc1ccc2c(c1)CCC2)(Cc1ccc2c(c1)CCC2)C(=O)OCC`, the GI50 in assay [1] is 51.3 µM (inactive); in assay [2], 30.5 µM (inactive); in assay [3] it was 33.8 µM (inactive); in assay [4], 52.6 µM (inactive); in assay [5], > 100 µM (inactive); in assay [6], 81.7 µM (inactive). For the same molecule, the GI50 is > 100 µM (inactive) in [7]; > 100 µM (inactive) in assay [8]; 23.4 µM (inactive) in assay [9]; > 100 µM (inactive) in [11]; 56.9 µM (inactive) in [12]; 32.5 µM (inactive) in [14]. The GI50 in [15] was 58.5 µM (inactive); in assay [16], > 100 µM (inactive); in assay [17], 29.9 µM (inactive); in assay [18], 26.9 µM (inactive).

Take `C/C(=N\Nc1nc2ccccc2o1)c1ncccn1`: the GI50 in assay [1] was < 0.0234 µM (active); in assay [2], < 0.01 µM (active); in [19] it was 0.118 µM (active); in assay [3], 0.0574 µM (active); in [4], 0.0121 µM (active); in assay [5] it was < 0.0163 µM (active). The GI50 in assay [6] was 0.043 µM (active); in assay [7] it was 0.0811 µM (active); in assay [8] it was < 0.01 µM (active); in assay [10], 0.0646 µM (active); in assay [11], 0.0675 µM (active); in assay [12], 0.32 µM (active). Moreover, the GI50 was 0.817 µM (active) in [13]; < 0.0273 µM (active) in assay [14]; 0.012 µM (active) in assay [15]; 0.984 µM (active) in [16]; < 0.01 µM (active) in [17]; 0.145 µM (active) in [18].
